{"source": "patent US8183280B2", "about": "“FAP inhibitors” (Vantia Limited, priority 2005, dated 2012)", "origin": "cited, not measured here", "test_system": "syngeneic tumours", "conditions": "mice, oral administration; Cancer Res., 2004, 64: 5471"}
{"smiles": "CC(C)[C@H](N)C(=O)N1CCC[C@H]1B(O)O", "note": "[ValboroPro]", "values": [{"measurement": "anti-tumour activity", "result": "potent anti-tumour activity in mice"}]}
